Results taken from patent publication US20250099494A1, “PHOSPHONIC ACID COMPOUND AND PRODRUG THEREOF, AND PREPARATION METHODS FOR AND USES OF PHOSPHONIC ACID COMPOUND AND PRODRUG THEREOF” (HAIHE BIOPHARMA CO., LTD., priority 2022, published 2025).

Legend:
hENPP1-ECD-His = hENPP1-ECD-His (Homo sapiens (Human), UniProt P22413); assay: ENPP1 inhibitory activity, substrate 2',3'-cGAMP detection (AMP-Glo); settings: read-out: c-GAMP (IC50, nM), inhibitory effect on ENPP1
Method: The ENPP1 inhibitory activity of the compound of the present disclosure was tested in substrate 2′,3′-cGAMP detection.
Experimental objective: based on the established experimental method, the inhibitory IC50 value of the compound in the present application on ENPP1 was detected using 2′,3′-cGAMP as the substrate.
2. Preparation of compound concentration gradient: the tested compound was dissolved in DMSO (dimethyl sulfoxide) to an initial concentration of 10 μM, diluted at 3 times, with 10 concentrations, single well or multi-well testing was set. […] The compound was diluted by gradient in a 384 well plate to a solution with the final concentration of 1000 times, and then 5 nL of the solution was transferred to a 384 well reaction plate for testing using Echo550.5 nL of 100% DMSO was transferred from the smallest well and the largest well.
6. The reaction solution was centrifuged at 1000 rpm for 1 minute and incubated at room temperature for 15 minutes.
7. 2.5 μL 2× substrate solution was added to each well of the reaction plate, centrifuged at 1000 rpm for 1 minute, and incubated at room temperature for 60 minutes.
8. 5 μL of R1 solution (from AMP-Glo™ Kit) was added to each well of the reaction plate, centrifuged at 1000 rpm for 1 minute and incubated at room temperature for 120 minutes.
9. 10 μL of R2 solution (from AMP-Glo™ Kit) was added to each well of the reaction plate, centrifuged at 1000 rpm for 1 minute and incubated at room temperature for 30 minutes.
The inhibition rate is calculated using the following formula: • inhibition rate %=(maximum signal−compound signal)/(maximum signal−minimum signal)×100 • wherein the “minimum signal” represents the mean value of the negative control well, and the “maximum signal” represents the mean value of the positive control well.
Using the log value of concentration as the X-axis and the percentage inhibition rate as the Y-axis, the dose-response curve was fitted using the log(inhibitor) vs. response-variable slope of analysis software GraphPadPrism5 to obtain the inhibitory IC50 value of the compound of the present disclosure on enzyme activity.

[1] = Pharmacokinetic test experiment of mice; type: in vivo, ICR mice; settings: after oral administration
Method: 1. In each administration mode, 9 healthy ICR mice male, weighing 30-35 g, were randomly divided into 3 groups (M1, M2, M3) with 3 mice in each group. […] Feeding uniformly 4 hours after administration.

[2] = Pharmacokinetic test experiment for rats; type: in vivo, SD rats; settings: p.o. prodrug compound 7 (5 mg/kg) vs i.v. compound 1 (1 mg/kg)
Method: 1. Six SD rats of 6-8 weeks old, male, were taken in each administration mode, and the tested compound was administered by gavage (5 mg/kg) and intravenous injection (1 mg/kg), respectively: fasting for 12 hours before the experiment and drinking water freely. Feeding uniformly 4 hours after administration.
(§1) Plasma collection and processing: at the above set time points, 150-200 μL of blood was collected via the plexus jugularis or a suitable part, placed in EDTA-K2 test tube, centrifuged at 3500 rpm for 10 min, plasma was separated, and frozen at −20° C. in a refrigerator.
LC/MS/MS method was used to determine the concentration of compounds in rats plasma. The pharmacokinetic parameters after administration were calculated using a non-compartmental model using Phoenix 8.3 software (Pharsight, USA).

[3] = Pharmacokinetic test experiment for dogs; settings: beagle dogs, p.o. prodrug compound 7 (2 mg/kg) vs i.v. compound 1 (1 mg/kg)
Method: Feeding uniformly 4 hours after administration.
as §1, with “Blood was collected continuously, with 3 animals collected at each time point. Plasma” for “Plasma”, “1,000” for “150-200”
LC/MS/MS method was used to determine the concentration of compounds in the beagle dogs plasma. The pharmacokinetic parameters after administration were calculated using a non-compartmental model using Phoenix 8.3 software (Pharsight, USA).

[4] = mice, reported by the literature; cited from earlier work

hENPP1-ECD-His, sequence (P22413 98-925): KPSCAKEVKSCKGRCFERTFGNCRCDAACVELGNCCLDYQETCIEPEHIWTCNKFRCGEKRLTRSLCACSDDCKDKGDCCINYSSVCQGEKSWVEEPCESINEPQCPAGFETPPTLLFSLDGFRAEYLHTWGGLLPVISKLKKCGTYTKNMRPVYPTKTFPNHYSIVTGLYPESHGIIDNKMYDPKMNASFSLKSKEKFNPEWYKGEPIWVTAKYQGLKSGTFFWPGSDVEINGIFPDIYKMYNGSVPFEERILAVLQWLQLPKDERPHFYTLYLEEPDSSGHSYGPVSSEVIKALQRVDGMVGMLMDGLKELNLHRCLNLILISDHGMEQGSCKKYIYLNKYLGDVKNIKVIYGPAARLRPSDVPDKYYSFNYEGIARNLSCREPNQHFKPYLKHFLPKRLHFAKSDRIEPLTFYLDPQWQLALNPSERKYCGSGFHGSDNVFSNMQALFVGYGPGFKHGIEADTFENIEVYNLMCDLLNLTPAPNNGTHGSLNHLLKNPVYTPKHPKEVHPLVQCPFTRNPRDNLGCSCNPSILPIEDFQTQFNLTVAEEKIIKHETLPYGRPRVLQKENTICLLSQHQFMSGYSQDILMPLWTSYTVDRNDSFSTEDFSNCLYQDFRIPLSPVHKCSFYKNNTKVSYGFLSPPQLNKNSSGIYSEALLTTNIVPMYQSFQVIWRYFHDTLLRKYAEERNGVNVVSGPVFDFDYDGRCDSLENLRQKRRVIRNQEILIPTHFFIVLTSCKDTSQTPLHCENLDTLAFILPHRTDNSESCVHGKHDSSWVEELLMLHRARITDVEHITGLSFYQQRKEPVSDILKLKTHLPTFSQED

Structure (SMILES)	IC50 (hENPP1-ECD-His) [nM]	further results
COc1ccc2c(Nc3ccc(CP(=O)(O)O)cc3)ncnc2n1 [Compound 13]	0.94	–
COc1ccc2c(Nc3ccc(CP(=O)(O)O)cn3)ccnc2n1 [Compound 21]	5	–
COc1ccc2c(Oc3c(F)cc(CP(=O)(O)O)cc3F)ccnc2n1 [Compound 3]	18	–
COc1ccc2c(Oc3cc(F)c(CP(=O)(O)O)cc3F)ccnc2n1 [Compound 6]	11	–
COc1ccc2c(Oc3cc(F)c(CP(=O)(O)O)c(F)c3)ccnc2n1 [Compound 5]	11	–
COc1ccc2c(Oc3ccc(CP(=O)(OCOC(=O)OC(C)C)OCOC(=O)OC(C)C)cc3)ccnc2n1 [Compound 8]	–	time of conversion of prodrug to parent drug compound 1 in mice plasma [1]: ≤ 5 min
COc1ccc2c(Oc3ccc(CP(=O)(OCOC(=O)C(C)(C)C)OCOC(=O)C(C)(C)C)cc3)ccnc2n1 [Compound 7]	–	Bioavailability Oral BA (% F) [2]: 40 % F; Bioavailability Oral BA (% F) [3]: 21 % F; time of conversion of prodrug to parent drug compound 1 in mice plasma [1]: ≤ 5 min
COc1ccc2c(Oc3ccc(CCP(=O)(O)O)cc3)ccnc2n1 [Compound 23]	37	–
COc1ccc2c(Nc3ccc(CP(=O)(O)O)nc3)ccnc2n1 [Compound 20]	2.1	–
COc1cccc2c(N3CCC(CCP(=O)(O)O)CC3)ncnc12 [STF32, reference compound]	6.2	half-life of injection administration T1/2 [4]: 14 min
COc1cc2ncnc(Nc3ccc(CP(=O)(O)O)cc3)c2cc1OC [STF22, reference compound]	63	–
